# Results from US11542273B2, “Amide compound having bet proteolysis-inducing action and medicinal application thereof” (MITSUBISHI TANABE PHARMA CORPORATION, priority 2018, dated 2023).
# pIC50: −log10 of the molar value.
# Assays:
# BRD4 bromodomain 1 = BRD4 bromodomain 1 (Homo sapiens (Human), UniProt O60885); assay: Inhibitory action on binding of BRD4 protein and ligand, Test Method 1 (TR-FRET, BRD4 bromodomain 1 TR-FRET Assay Kit); settings: Test Method 1, BRD4 bromodomain 1 and ligand
# Experimental: The inhibitory action of the compound of the present invention on the binding of BRD4 protein and a ligand thereof was evaluated by the time-resolved fluorescence resonance energy transfer (TR-FRET) method using BRD4 bromodomain 1 TR-FRET Assay Kit (Cayman). In this experiment, (+)-JQ1 known to have an inhibitory activity on the binding of BRD4 protein and a ligand therefor was used as a positive control drug. A test compound dissolved in DMSO was diluted with TR-FRET Assay Buffer, added to a 384 well black plate, BRD4 bromodomain 1 Europium Chelete was further added and the cells were incubated at room temperature for 15 min. Thereafter, BRD4 bromodomain 1 Ligand/APC Acceptor Mixture was added and the cells were incubated at room temperature for 1 hr. The binding amount of the BRD4 protein and ligand was measured as fluorescence intensity (excitation: 340 nm/emission: 620 nm and excitation: 340 nm/emission: 670 nm).
# It was calculated from the straight line connecting the degradation rate at two points enclosing the 50% fluorescence intensity and the compound concentration.
# BRD4 protein = BRD4 protein (Homo sapiens (Human), UniProt O60885); assay: BRD4 protein degradation inducing action in cancer cells (immunofluorescence, Operetta); assay type: cell-based; settings: LNCaP cells, 6 hr treatment, fluorescence intensity
# In short: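 DC50 = compound concentration reducing BRD4 immunofluorescence to 50% of untreated cells, interpolated between the two flanking concentrations. Treatment: LNCaP cells, 6 hr, 10% FBS/RPMI1640, 37° C. Cells were then fixed, permeabilized, stained with anti-BRD4 and Alexa Fluor 488 or 546 secondaries, and imaged.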
# BRD4-1 (GST) = BRD4-1 (GST) (Homo sapiens (Human), UniProt O60885); assay: Inhibitory action on binding of BRD4 protein and acetylated histone H4, Test Method 2 (TR-FRET); settings: Test Method 2, BRD4-1 (GST) and acetylated histone H4, TR-FRET
# Experimental: The inhibitory action of the compound of the present invention on the binding of BRD4 protein and a ligand thereof (acetylated histone H4) was evaluated by the time-resolved fluorescence resonance energy transfer (TR-FRET) method using EPIgeneous™ Binding Domain Kit A (Cisbio), BRD4-1 (GST) (Reaction Biology Corp) and [Lys(Ac)5/8/12/16]-Histone H4(1-21)-GGK (Biotin) (Eurogentec). In this experiment, (+)-JQ1 known to have an inhibitory activity on the binding of BRD4 protein and acetylated histone H4 therefor was used as a positive control drug. A test compound dissolved DMSO was diluted with attached Diluent Buffer, added to a 384 well white plate, and BRD4-1 (GST) and [Lys(Ac)5/8/12/16]-Histone H4(1-21)-GGK (Biotin) were further added. Thereafter, Streptavidin-d2 conjugate and Anti-GST-Eu^3+ Cryptate Conjugate were added and the cells were incubated at room temperature for 3 hr. The binding amount of the BRD4 protein and acetylated histone H4 was measured as the fluorescence intensity (excitation: 314 nm/emission: 620 nm and excitation: 314 nm/emission: 665 nm). […] It was calculated from the straight line connecting the degradation rate at two points enclosing the 50% fluorescence intensity and the compound concentration.
Compound,pIC50 (BRD4 bromodomain 1),DC50 (BRD4 protein) [nM],pIC50 (BRD4-1 (GST))
"COC(=O)C[C@@H]1N=C(c2ccc(-c3ccc(OCC(=O)N[C@H](C(=O)N4C[C@H](O)C[C@H]4C(=O)N[C@@H](C)c4ccc(-c5scnc5C)cc4)C(C)(C)C)c(C#N)c3)cc2)c2c(sc(C)c2C)-n2c(C)nnc21 [Example 9, methyl [(6S)-4-{3′-cyano-4′-[2-({(2S)-1-[(2S,4R)-4-hydroxy-2-({(1S)-1-[4-(4-methyl-1,3-thiazol-5-yl)phenyl]ethyl}carbamoyl)pyrrolidin-1-yl]-3,3-dimethyl-1-oxobutan-2-yl}amino)-2-oxoethoxy][1,1′-biphenyl]-4-yl}-2,3,9-trimethyl-6H-thieno[3,2-f][1,2,4]triazolo[4,3-a][1,4]diazepin-6-yl]acetate]",7.33,0.15,–
"COC(=O)C[C@@H]1N=C(c2ccc(-c3ccc(C(=O)N[C@H](C(=O)N4C[C@H](O)C[C@H]4C(=O)N[C@@H](C)c4ccc(-c5scnc5C)cc4)C(C)(C)C)c(Cl)c3)cc2)c2c(sc(C)c2C)-n2c(C)nnc21 [Example 157, methyl {(6S)-4-[3′-chloro-4′-({(2S)-1-[(2S,4R)-4-hydroxy-2-({(1S)-1-[4-(4-methyl-1,3-thiazol-5-yl)phenyl]ethyl}carbamoyl)pyrrolidin-1-yl]-3,3-dimethyl-1-oxobutan-2-yl}carbamoyl)[1,1′-biphenyl]-4-yl]-2,3,9-trimethyl-6H-thieno[3,2-f][1,2,4]triazolo[4,3-a][1,4]diazepin-6-yl}acetate]",–,0.38,7.21
"COC(=O)C[C@@H]1N=C(c2ccc(N3CC[C@@H](Oc4ccc5oc(C(=O)N[C@H](C(=O)N6C[C@H](O)C[C@H]6C(=O)N[C@@H](C)c6ccc(-c7scnc7C)cc6)C(C)(C)C)cc5c4)C3)cc2)c2c(sc(C)c2C)-n2c(C)nnc21 [Example 142, methyl [(6S)-4-{4-[(3R)-3-{[2-({(2S)-1-[(2S,4R)-4-hydroxy-2-({(1S)-1-[4-(4-methyl-1,3-thiazol-5-yl)phenyl]ethyl}carbamoyl)pyrrolidin-1-yl]-3,3-dimethyl-1-oxobutan-2-yl}carbamoyl)-1-benzofuran-5-yl]oxy}pyrrolidin-1-yl]phenyl}-2,3,9-trimethyl-6H-thieno[3,2-f][1,2,4]triazolo[4,3-a][1,4]diazepin-6-yl]acetate]",–,0.72,6.96
